Measured values published in US10077237B2 (Sanofi, priority 2013, dated 2018).
pEC50: −log10 of the molar value. Structures can show the parent of a compound that is named as a salt.

Target: T1, recombinant human AMPK complex, containing α2β1γ2 (Homo sapiens, UniProt P54646+Q9Y478)
T1 construct: hsAMPKα2-552-His, hsAMPKβ1-2-270 and hsAMPKγ-2-569 respectively; hsAMPKβ1-2-270; hsAMPKγ-2-569; His (C); made in house; host or cells: Spodoptera frugiperda Sf21 (baculovirus)
Assay: AMPK in vitro activation assay (HTRF)
Format: biochemical
Conditions: for pEC50: HTRF, recombinant human α2β1γ2 AMPK, 200 μM ATP, biotinylated ACC-CREBp peptide, repeat determinations on separate lines
Experimental: The recombinant human AMPK complex, containing α2β1γ2 was obtained from baculovirus expression system and generated by cotransfection in Spodoptera frugiperda 21 (Sf21). […] were produced in serum free medium (SF900 II, Invitrogen) for 82 hours after a triple infection at a multiplicity of infection (M.O.I.) of 0.05, 0.06 and 0.045 for hsAMPKα2-552-His, hsAMPKβ1-2-270 and hsAMPKγ-2-569 respectively. Cells were harvested by centrifugation at 1,000×g for 10 minutes at 4° C. and stored at −80° C. The insect cell pellet from 8 liters of culture was resuspended and homogenized in 580 ml of lysis buffer (20 mM Hepes pH 7.5, 150 mM NaCl, 10 mM imidazole, 50 mM NaF, 10% Glycerol and supplemented with EDTA free proteases inhibitor cocktail Roche). The AMPK complex was partially purified using an affinity chromatography under a Ni-NTA Agarose column equilibrated in the lysis buffer and eluted with a gradient (0 to 400 mM) of Imidazol.
A homogeneous time-resolved fluorescence (HTRF) assay was used (Li et al, Anal. Biochem. (2003) 321, 151-156) to identify compounds with stimulating activity for the recombinant human AMPK. Enzyme reaction was performed into a 96-well microtiter plate. First, 20 μL of test compounds in 0.5% DMSO were dispensed followed by 10 μL of protein in 50 mM HEPES buffer at pH 7.0, 100 mM NaCl, 5 mM MgCl2, 0.01% BSA, 0.8 mM DTT. After, 30 min incubation at room temperature, the reaction was initiated by the addition of 10 μL of a solution containing 200 μM of ATP as donor substrate, 2 μM or 0.08 μM of biotinylated ACC-CREBp peptide (PolyPeptide) as acceptor. Plates were then incubated 45 min at 37° C. The reaction was terminated by the addition of 40 μl detection mixture containing Eu^3+ cryptate-conjugated anti-pS^133-CREB antibody and streptavidine-XL665 (CisBio). Plates were further incubated for 2 h30 at room temperature. The fluorescence signal was measured using an Envision multireader (Perkin Elmer). The non-specific signal was obtained without substrates. Potentiation of AMPK activity was expressed as a percent over the basal signal (without compound) from which an EC50 value was determined.
The EC50 of a graded dose response curve represents the concentration of a compound where 50% of its maximal effect is observed.

[1] = potentiation of AMPK activity as percent over the basal signal (without compound)

T1 sequence (P54646 2-552): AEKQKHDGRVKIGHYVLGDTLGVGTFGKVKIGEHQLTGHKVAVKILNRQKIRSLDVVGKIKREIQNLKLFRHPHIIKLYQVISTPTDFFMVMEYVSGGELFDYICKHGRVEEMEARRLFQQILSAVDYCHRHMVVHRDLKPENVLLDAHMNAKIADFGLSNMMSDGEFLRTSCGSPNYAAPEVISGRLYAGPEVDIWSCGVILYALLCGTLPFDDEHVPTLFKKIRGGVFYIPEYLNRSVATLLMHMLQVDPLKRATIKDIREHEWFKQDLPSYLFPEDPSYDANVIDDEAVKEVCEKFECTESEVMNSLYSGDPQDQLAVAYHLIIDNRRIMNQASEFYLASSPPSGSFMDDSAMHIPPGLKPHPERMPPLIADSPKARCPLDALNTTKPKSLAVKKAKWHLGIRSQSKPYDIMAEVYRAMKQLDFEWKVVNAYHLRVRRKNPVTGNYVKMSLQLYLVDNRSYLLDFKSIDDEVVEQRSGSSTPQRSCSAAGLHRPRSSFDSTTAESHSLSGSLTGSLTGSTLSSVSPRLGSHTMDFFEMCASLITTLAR
T1 sequence (Q9Y478 2-270): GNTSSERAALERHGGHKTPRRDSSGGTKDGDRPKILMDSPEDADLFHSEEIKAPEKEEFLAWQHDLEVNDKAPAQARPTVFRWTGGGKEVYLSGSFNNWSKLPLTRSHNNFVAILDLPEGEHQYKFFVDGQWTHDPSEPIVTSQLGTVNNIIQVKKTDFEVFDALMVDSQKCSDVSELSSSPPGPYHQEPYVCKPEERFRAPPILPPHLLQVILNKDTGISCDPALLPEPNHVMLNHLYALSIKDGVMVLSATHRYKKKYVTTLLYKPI
T1 sequence (Q9UGJ0 2-569 partner limits assumed): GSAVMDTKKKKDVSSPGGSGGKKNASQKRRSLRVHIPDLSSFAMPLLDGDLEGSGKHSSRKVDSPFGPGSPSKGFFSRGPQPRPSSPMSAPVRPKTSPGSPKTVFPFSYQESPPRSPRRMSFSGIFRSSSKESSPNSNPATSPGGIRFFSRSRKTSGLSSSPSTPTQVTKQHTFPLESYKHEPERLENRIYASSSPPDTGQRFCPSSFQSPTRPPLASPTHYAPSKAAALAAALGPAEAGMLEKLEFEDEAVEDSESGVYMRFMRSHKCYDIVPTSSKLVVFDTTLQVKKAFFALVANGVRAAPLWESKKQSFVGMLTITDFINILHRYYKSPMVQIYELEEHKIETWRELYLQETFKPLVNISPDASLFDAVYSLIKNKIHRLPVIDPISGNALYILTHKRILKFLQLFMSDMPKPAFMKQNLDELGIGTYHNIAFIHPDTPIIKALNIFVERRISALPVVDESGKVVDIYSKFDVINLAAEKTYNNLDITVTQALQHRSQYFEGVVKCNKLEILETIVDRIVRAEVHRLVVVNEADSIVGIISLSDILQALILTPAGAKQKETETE

| SMILES | pEC50 | Emax [1] [%] | α2β1γ2 AMPK Emax [1] |
| --- | --- | --- | --- |
| O=C1Nc2cc(Cl)c(-c3ccc(N4CCOCC4)cc3)cc2C1=C(O)c1cccc(Cl)c1 [Compound 34, 6-Chloro-3-[1-(3-chloro-phenyl)-1-hydroxy-methylidene]-5-(4-morpholin-4-yl-phenyl)-1,3-dihydro-indol-2-one] | 6.20 | 156 |  |
| COc1cc(-c2cc3c(cc2Cl)NC(=O)C3=C(O)c2cc(C)no2)ccc1O [Compound 81, 6-chloro-5-(4-hydroxy-3-methoxy-phenyl)-3-[hydroxy-(3-methylisoxazol-5-yl)methylene]indolin-2-one] | 6.11 | 136 |  |
| Cn1ccc(C(O)=C2C(=O)Nc3cc(Cl)c(-c4ccc(N5CCOCC5)cc4)cc32)n1 [Compound 53, 6-Chloro-3-[1-hydroxy-1-(1-methyl-1H-pyrazol-3-yl)-methylidene]-5-(4-morpholin-4-yl-phenyl)-1,3-dihydro-indol-2-one] | 5.77 | 180 |  |
| Cc1cc(C(O)=C2C(=O)Nc3cc(Cl)c(-c4ccc(C(O)(CO)CCl)cc4)cc32)on1 (centres unmarked) [Compound 80, 6-chloro-5-[4-[1-(chloromethyl)-1,2-dihydroxy-ethyl]phenyl]-3-[hydroxy-(3-methylisoxazol-5-yl)methylene]indolin-2-one] | 7.82 | 99 |  |
| Cc1cc(C(O)=C2C(=O)Nc3cc(Cl)c(-c4ccc(C5CCN(C)CC5)cc4)cc32)on1 [Compound 78, 6-Chloro-3-[1-hydroxy-1-(3-methyl-isoxazol-5-yl)methylidene]-5-[4-(1-methyl-piperidin-4-yl)phenyl]-1,3-dihydro-indol-2-one, hydrochloride] | 8.15 | 141 |  |
| Cc1cc(C(O)=C2C(=O)Nc3cc(Cl)c(-c4ccc(O)cc4)cc32)on1 [Compound 33, 6-Chloro-3-[1-hydroxy-1-(3-methyl-isoxazol-5-yl)-methylidene]-5-(4-hydroxy-phenyl)-1,3-dihydro-indol-2-one] | 6.41 | 120 |  |
| Cc1nocc1C(O)=C1C(=O)Nc2cc(Cl)c(-c3ccc(N4CCOCC4)cc3)cc21 [Compound 60, 6-Chloro-3-[1-hydroxy-1-(3-methyl-isoxazol-4-yl)-methylidene]-5-(4-morpholin-4-yl-phenyl)-1,3-dihydro-indol-2-one] | 6.11 | 298 |  |
| O=C1Nc2cc(F)c(-c3ccc(C4(CO)CC4)cc3)c(F)c2C1=C(O)c1cc(C2CC2)no1 [Compound 120, 3-[(3-cyclopropylisoxazol-5-yl)hydroxy-methylene]-4,6-difluoro-5-[4-[1-(hydroxymethyl)cyclopropyl]phenyl]indolin-2-one] | 9.70 | 169 |  |
| O=C1Nc2cc(Cl)c(-c3ccc4ccccc4c3)cc2C1=C(O)c1cccc(F)c1 [Compound 11, 6-Chloro-3-[1-(3-fluoro-phenyl)-1-hydroxy-methylidene]-5-naphthalen-2-yl-1,3-dihydro-indol-2-one] | 5.40 | 95 |  |
| Cc1cc(C(O)=C2C(=O)Nc3cc(F)c(-c4ccc(C5(CO)CC5)cc4)cc32)on1 [Compound 72, 6-Fluoro-5-[4-(1-hydroxymethyl-cyclopropyl)phenyl]-3-[1-hydroxy-1-(3-methyl-isoxazol-5-yl)methylidene]-1,3-dihydro-indol-2-one] | 8.70 | 159 |  |
| COc1ccc(-c2cc3c(cc2Cl)NC(=O)C3=C(O)c2cc(C)no2)cc1 [Compound 20, 6-Chloro-3-[1-hydroxy-1-(3-methyl-isoxazol-5-yl)-methylidene]-5-(4-methoxy-phenyl)-1,3-dihydro-indol-2-one] | 6.39 | 223 |  |
| O=C1Nc2cc(Cl)c(-c3ccc(N4CCOCC4)cc3)cc2C1=C(O)c1cccc(N2CCOCC2)c1 [Compound 94, 6-chloro-3-[hydroxy-(3-morpholinophenyl)methylene]-5-(4-morpholinophenyl)indolin-2-one] | 7.85 | 150 |  |
| Cc1cc(C(O)=C2C(=O)Nc3cc(Cl)c(-c4ccc(OCCCN5CCN(C)CC5)cc4)cc32)on1 [Compound 70, 6-Chloro-3-[1-hydroxy-1-(3-methyl-isoxazol-5-yl)methylidene]-5-{4-[3-(4-methyl-piperazin-1-yl)-propoxy]-phenyl}-1,3-dihydro-indol-2-one, hydrochloride] | 7.06 | 142 |  |
| O=C1Nc2cc(Cl)c(-c3ccc(N4CCOCC4)cc3)cc2C1=C(O)c1cccnc1 [Compound 25, 6-Chloro-3-[1-hydroxy-1-pyridin-3-yl-methylidene]-5-(4-morpholin-4-yl-phenyl)-1,3-dihydro-indol-2-one] | 6.49 | 146 |  |
| COc1cc(C(O)=C2C(=O)Nc3cc(F)c(-c4ccc(C5(CO)CC5)cc4)cc32)on1 [Compound 118, 6-fluoro-3-[hydroxy-(3-methoxyisoxazol-5-yl)methylene]-5-[4-[1-(hydroxymethyl)cyclopropyl]phenyl]indolin-2-one] | 9.30 | 133 |  |
| Cc1cc(C([O-])=C2C(=O)Nc3cc(Cl)c(-c4ccc(N(C)C)cc4)cc32)on1.[Na+] [Compound 2, 6-Chloro-5-(4-dimethylamino-phenyl)-3-[1-hydroxy-1-(3-methyl-isoxazol-5-yl)-methylidene]-1,3-dihydro-indol-2-one, sodium salt] | 7.28 |  | (183 +/− 51) % |

Second part, the compound after the results:

| pEC50 | Emax [1] [%] | α2β1γ2 AMPK Emax [1] | SMILES |
| --- | --- | --- | --- |
| 10.00 | 172 |  | O=C1Nc2cc(Cl)c(-c3ccc(C4(CO)CC4)cc3)cc2C1=C(O)c1cc2ncccc2o1 [Compound 169, 6-chloro-3-[furo[3,2-b]pyridin-2-yl(hydroxy)methylene]-5-[4-[1-(hydroxymethyl)cyclopropyl]phenyl]indolin-2-one] |
| 9.30 | 130 |  | COc1cc(C(O)=C2C(=O)Nc3cc(Cl)c(-c4ccc(C5(CO)CC5)cc4)cc32)ccn1 [Compound 158, 6-chloro-3-[hydroxy-(2-methoxy-4-pyridyl)methylene]-5-[4-[1-(hydroxymethyl)cyclopropyl]phenyl]indolin-2-one] |
| 9.00 | 181 |  | COc1cc(C(O)=C2C(=O)Nc3cc(Cl)c(-c4ccc(OCCCN(C)C)cc4)cc32)on1 [Compound 173, 6-chloro-5-[4-[3-(dimethylamino)propoxy]phenyl]-3-[hydroxy-(3-methoxyisoxazol-5-yl)methylene]indolin-2-one] |
| 8.22 | 197 |  | O=C1Nc2cc(Cl)c(-c3ccc(C4CC(O)C4)cc3)cc2C1=C(O)c1ccccc1F (centres unmarked) [Compound 171, 6-chloro-3-[(2-fluorophenyl)hydroxy-methylene]-5-[4-(3-hydroxycyclobutyl)phenyl]indolin-2-one] |
| 7.85 | 397 |  | COc1cc(C(O)=C2C(=O)Nc3cc(Cl)c(-c4ccc(C5CCN(C)C5)cc4)cc32)on1 (centres unmarked) [Compound 133, 6-chloro-3-[hydroxy-(3-methoxyisoxazol-5-yl)methylene]-5-[4-(1-methylpyrrolidin-3-yl)phenyl]indolin-2-one hydrochloride] |
| 6.93 | 156 |  | COc1cc(C(O)=C2C(=O)Nc3cc(Cl)c(-c4ccc(C5CCN(CC(F)(F)F)C5)cc4)cc32)on1 (centres unmarked) [Compound 167, 6-chloro-3-[hydroxy-(3-methoxyisoxazol-5-yl)methylene]-5-[4-[1-(2,2,2-trifluoroethyl)pyrrolidin-3-yl]phenyl]indolin-2-one hydrochloride] |
| 9.52 | 173 |  | O=C1Nc2cc(Cl)c(-c3ccc(C4(CO)CC4)cc3)cc2C1=C(O)c1cc2ccccc2o1 [Compound 168, 3-[benzofuran-2-yl(hydroxy)methylene]6-chloro-5-[4-[1-(hydroxymethyl)cyclopropyl]phenyl]indolin-2-one] |
| 7.31 | 364 |  | Cc1cc(C(O)=C2C(=O)Nc3cc(Cl)c(-c4ccc(OCC5COC5)cc4)cc32)on1 [Compound 132, 6-chloro-3-[hydroxy-(3-methylisoxazol-5-yl)methylene]-5-[4-(oxetan-3-ylmethoxy)phenyl]indolin-2-one] |
| 9.00 | 185 |  | O=C1Nc2cc(Cl)c(-c3ccc(C4CC(O)C4)cc3)cc2C1=C(O)c1cc(C2CC2)no1 (centres unmarked) [Compound 174, 6-chloro-3-[(3-cyclopropylisoxazol-5-yl)hydroxy-methylene]-5-[4-(3-hydroxycyclobutyl)phenyl]indolin-2-one] |
